Data as given in patent US20250051338A1, “TYK2 DEGRADERS AND USES THEREOF” (Kymera Therapeutics, Inc., priority 2021, published 2025).

How the values were obtained:
Type in all cases: cell-based
TYK2 [1] = molecular target: T1, TYK2 (Homo sapiens, UniProt P29597); assay: TYK2 degradation MSD assay in human PBMC cells; set-up: endogenous in cells; host or cells: human PBMC; settings: 4 to 24 hours incubation, read-out: TYK2 MSD DC50 rating in human PBMC
In short: (§1)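 0.4 million cells/well; cpd 9-dose 1:3 titration, top 1–10 μM; 4–24 h, 37° C, 5% CO2; RIPA lysis; TYK2 capture/detection sandwich on MSD, SULFO-TAG anti-rabbit secondary; DC50 via 4-parameter fit.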

TYK2 [2] = molecular target: T1, TYK2; assay: TYK2 degradation MSD assay in EBV-B cells; set-up: endogenous in cells; host or cells: EBV-B cells; settings: 4 to 24 hours incubation, read-out: TYK2 MSD DC50 rating in EBV-B
In short: as §1

TYK2 [3] = molecular target: T1, TYK2; assay: TYK2 degradation MSD assay in OCI-LY10 cells; set-up: endogenous in cells; host or cells: EBV-B cells; settings: 4 to 24 hours incubation, read-out: TYK2 MSD DC50 rating in OCI-LY10
In short: as §1

T1 sequence (P29597 whole entry): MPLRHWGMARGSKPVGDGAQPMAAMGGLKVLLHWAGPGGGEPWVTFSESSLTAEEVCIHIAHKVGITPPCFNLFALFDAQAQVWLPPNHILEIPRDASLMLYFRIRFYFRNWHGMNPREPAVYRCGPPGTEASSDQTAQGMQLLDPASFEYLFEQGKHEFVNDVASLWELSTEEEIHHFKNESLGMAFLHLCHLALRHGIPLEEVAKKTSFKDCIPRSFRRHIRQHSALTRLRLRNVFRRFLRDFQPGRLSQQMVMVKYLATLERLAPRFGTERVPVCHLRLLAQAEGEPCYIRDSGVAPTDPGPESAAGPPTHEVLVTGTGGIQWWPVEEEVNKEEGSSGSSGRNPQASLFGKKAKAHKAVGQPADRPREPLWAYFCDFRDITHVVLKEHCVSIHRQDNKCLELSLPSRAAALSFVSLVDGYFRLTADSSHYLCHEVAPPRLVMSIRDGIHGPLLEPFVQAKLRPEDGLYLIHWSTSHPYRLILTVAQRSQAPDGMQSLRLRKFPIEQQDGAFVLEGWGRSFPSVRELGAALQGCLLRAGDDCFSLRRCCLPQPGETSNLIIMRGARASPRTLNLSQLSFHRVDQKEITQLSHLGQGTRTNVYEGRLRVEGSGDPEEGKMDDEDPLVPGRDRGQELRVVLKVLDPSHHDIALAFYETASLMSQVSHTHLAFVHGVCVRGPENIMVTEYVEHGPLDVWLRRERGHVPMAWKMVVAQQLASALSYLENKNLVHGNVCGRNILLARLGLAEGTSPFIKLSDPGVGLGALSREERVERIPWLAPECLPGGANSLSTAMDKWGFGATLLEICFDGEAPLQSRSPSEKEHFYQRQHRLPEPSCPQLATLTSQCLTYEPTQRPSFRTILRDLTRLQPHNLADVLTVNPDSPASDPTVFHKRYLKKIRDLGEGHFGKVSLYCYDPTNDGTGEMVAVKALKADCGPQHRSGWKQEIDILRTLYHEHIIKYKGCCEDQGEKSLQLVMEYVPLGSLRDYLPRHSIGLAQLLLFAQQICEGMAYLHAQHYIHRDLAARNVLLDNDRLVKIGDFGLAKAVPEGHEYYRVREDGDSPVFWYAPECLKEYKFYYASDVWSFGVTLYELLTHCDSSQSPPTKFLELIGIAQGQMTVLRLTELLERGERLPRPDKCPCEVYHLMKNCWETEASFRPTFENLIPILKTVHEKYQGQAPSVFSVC

Row | SMILES | DC50 (TYK2 [1]) | DC50 (TYK2 [2]) | DC50 (TYK2 [3])
1 | CNc1cc(Nc2cccn(-c3cccc(C(=O)NCCCCc4ccc5c(c4)n(C)c(=O)n5C4CCC(=O)NC4=O)c3)c2=O)nn2c(C(=O)N[C@@H]3C[C@@H]3F)cnc12 (stereo partly drawn) [Example K227] | > 100 nM | > 100 nM | > 100 nM
2 | CNc1cc(Nc2cccn(-c3cc(C(=O)NCCCCc4cccc5c4n(C)c(=O)n5C4CCC(=O)NC4=O)ccn3)c2=O)nn2c(C(=O)N[C@@H]3C[C@@H]3F)cnc12 (stereo partly drawn) [Example K228] | 1 to 10 nM | > 100 nM | > 100 nM
3 | CNc1cc(Nc2cccn(-c3cc(C(=O)NCCCCCCc4ccc5c(c4)n(C)c(=O)n5C4CCC(=O)NC4=O)ccn3)c2=O)nn2c(C(=O)N[C@@H]3C[C@@H]3F)cnc12 (stereo partly drawn) [Example K229] | < 1 nM | > 100 nM | > 100 nM
4 | CNc1cc(Nc2cccn(-c3cc(C(=O)NCCCCCCc4cccc5c4n(C)c(=O)n5C4CCC(=O)NC4=O)ccn3)c2=O)nn2c(C(=O)N[C@@H]3C[C@@H]3F)cnc12 (stereo partly drawn) [Example K230] | 1 to 10 nM | > 100 nM | > 100 nM
5 | CNc1cc(Nc2cccn(-c3cc(C(=O)NCCCCCCCCc4ccc5c(c4)n(C)c(=O)n5C4CCC(=O)NC4=O)ccn3)c2=O)nn2c(C(=O)N[C@@H]3C[C@@H]3F)cnc12 (stereo partly drawn) [Example K231] | < 1 nM | > 100 nM | > 100 nM
6 | CNc1cc(Nc2cccn(-c3cc(C(=O)NCCCCCCCCc4cccc5c4n(C)c(=O)n5C4CCC(=O)NC4=O)ccn3)c2=O)nn2c(C(=O)N[C@@H]3C[C@@H]3F)cnc12 (stereo partly drawn) [Example K232] | 1 to 10 nM | > 100 nM | > 100 nM
7 | CNc1cc(Nc2cccn(-c3cc(C(=O)NCCCCCCCCCCc4ccc5c(c4)n(C)c(=O)n5C4CCC(=O)NC4=O)ccn3)c2=O)nn2c(C(=O)N[C@@H]3C[C@@H]3F)cnc12 (stereo partly drawn) [Example K233] | 1 to 10 nM | 1 to 10 nM | > 100 nM
8 | CNc1cc(Nc2cccn(-c3cc(C(=O)NCCCCCCCCCCc4cccc5c4n(C)c(=O)n5C4CCC(=O)NC4=O)ccn3)c2=O)nn2c(C(=O)N[C@@H]3C[C@@H]3F)cnc12 (stereo partly drawn) [Example K234] | > 100 nM | > 100 nM | > 100 nM
9 | CNc1cc(Nc2cccn(-c3cccc(C(=O)NCCOCCOCCc4ccc5c(c4)n(C)c(=O)n5C4CCC(=O)NC4=O)c3)c2=O)nn2c(C(=O)N[C@@H]3C[C@@H]3F)cnc12 (stereo partly drawn) [Example K235] | 1 to 10 nM | > 100 nM | > 100 nM
10 | CNc1cc(Nc2cccn(-c3cccc(C(=O)NCCOCCOCCc4cccc5c4n(C)c(=O)n5C4CCC(=O)NC4=O)c3)c2=O)nn2c(C(=O)N[C@@H]3C[C@@H]3F)cnc12 (stereo partly drawn) [Example K236] | 1 to 10 nM | > 100 nM | > 100 nM
11 | CNc1cc(Nc2cccn(-c3cc(C(=O)NCCOCCOCCc4ccc5c(c4)n(C)c(=O)n5C4CCC(=O)NC4=O)ccn3)c2=O)nn2c(C(=O)N[C@@H]3C[C@@H]3F)cnc12 (stereo partly drawn) [Example K237] | > 100 nM | > 100 nM | > 100 nM
12 | CNc1cc(Nc2cccn(-c3cc(C(=O)NCCOCCOCCc4cccc5c4n(C)c(=O)n5C4CCC(=O)NC4=O)ccn3)c2=O)nn2c(C(=O)N[C@@H]3C[C@@H]3F)cnc12 (stereo partly drawn) [Example K238] | > 100 nM | > 100 nM | > 100 nM
13 | CNc1cc(Nc2cccn(-c3cccc(C(=O)NCCOCCOCCOCCOCCc4ccc5c(c4)n(C)c(=O)n5C4CCC(=O)NC4=O)c3)c2=O)nn2c(C(=O)N[C@@H]3C[C@@H]3F)cnc12 (stereo partly drawn) [Example K239] | > 100 nM | > 100 nM | > 100 nM
14 | CNc1cc(Nc2cccn(-c3cccc(C(=O)NCCOCCOCCOCCOCCc4cccc5c4n(C)c(=O)n5C4CCC(=O)NC4=O)c3)c2=O)nn2c(C(=O)N[C@@H]3C[C@@H]3F)cnc12 (stereo partly drawn) [Example K240] | > 100 nM | > 100 nM | > 100 nM
15 | CNc1cc(Nc2cccn(-c3cc(C(=O)NCCOCCOCCOCCOCCc4ccc5c(c4)n(C)c(=O)n5C4CCC(=O)NC4=O)ccn3)c2=O)nn2c(C(=O)N[C@@H]3C[C@@H]3F)cnc12 (stereo partly drawn) [Example K241] | > 100 nM | > 100 nM | > 100 nM
16 | CNc1cc(Nc2cccn(-c3cc(C(=O)NCCOCCOCCOCCOCCc4cccc5c4n(C)c(=O)n5C4CCC(=O)NC4=O)ccn3)c2=O)nn2c(C(=O)N[C@@H]3C[C@@H]3F)cnc12 (stereo partly drawn) [Example K242] | > 100 nM | > 100 nM | > 100 nM

Results, then the molecule that gave them:

Row | DC50 (TYK2 [1]) | DC50 (TYK2 [2]) | DC50 (TYK2 [3]) | SMILES
17 | > 100 nM | > 100 nM | > 100 nM | CNc1cc(Nc2cccn(-c3cccc(C(=O)NCCOCCOCCOCCOCCOCCOCCc4ccc5c(c4)n(C)c(=O)n5C4CCC(=O)NC4=O)c3)c2=O)nn2c(C(=O)N[C@@H]3C[C@@H]3F)cnc12 (stereo partly drawn) [Example K243]
18 | > 100 nM | > 100 nM | > 100 nM | CNc1cc(Nc2cccn(-c3cc(C(=O)NCCOCCOCCOCCOCCOCCOCCc4cccc5c4n(C)c(=O)n5C4CCC(=O)NC4=O)ccn3)c2=O)nn2c(C(=O)N[C@@H]3C[C@@H]3F)cnc12 (stereo partly drawn) [Example K244]
19 | > 100 nM | > 100 nM | > 100 nM | CNc1cc(Nc2cccn(-c3cc(C(=O)NCCOCCOCCOCCOCCOCCOCCc4ccc5c(c4)n(C)c(=O)n5C4CCC(=O)NC4=O)ccn3)c2=O)nn2c(C(=O)N[C@@H]3C[C@@H]3F)cnc12 (stereo partly drawn) [Example K245]
20 | > 100 nM | > 100 nM | > 100 nM | CNc1cc(Nc2cccc(C(=O)NCCCCc3ccc4c(c3)n(C)c(=O)n4C3CCC(=O)NC3=O)c2)nn2c(C(=O)N[C@@H]3C[C@@H]3F)cnc12 (stereo partly drawn) [Example K247]
21 | > 100 nM | > 100 nM | > 100 nM | CNc1cc(Nc2cccc(C(=O)NCCCCc3cccc4c3n(C)c(=O)n4C3CCC(=O)NC3=O)c2)nn2c(C(=O)N[C@@H]3C[C@@H]3F)cnc12 (stereo partly drawn) [Example K248]
22 | > 100 nM | > 100 nM | > 100 nM | CNc1cc(Nc2cccc(C(=O)NCCCCCCc3ccc4c(c3)n(C)c(=O)n4C3CCC(=O)NC3=O)c2)nn2c(C(=O)N[C@@H]3C[C@@H]3F)cnc12 (stereo partly drawn) [Example K249]
23 | < 1 nM | > 100 nM | > 100 nM | CNc1cc(Nc2cccc(C(=O)NCCCCCCc3cccc4c3n(C)c(=O)n4C3CCC(=O)NC3=O)c2)nn2c(C(=O)N[C@@H]3C[C@@H]3F)cnc12 (stereo partly drawn) [Example K250]
24 | < 1 nM | > 100 nM | > 100 nM | CNc1cc(Nc2cccc(C(=O)NCCCCCCCCc3ccc4c(c3)n(C)c(=O)n4C3CCC(=O)NC3=O)c2)nn2c(C(=O)N[C@@H]3C[C@@H]3F)cnc12 (stereo partly drawn) [Example K251]
25 | > 100 nM | > 100 nM | > 100 nM | CNc1cc(Nc2ccccc2C(=O)NCCCCc2ccc3c(c2)n(C)c(=O)n3C2CCC(=O)NC2=O)nn2c(C(=O)N[C@@H]3C[C@@H]3F)cnc12 (stereo partly drawn) [Example K252]
26 | > 100 nM | > 100 nM | > 100 nM | CNc1cc(Nc2ccccc2C(=O)NCCCCc2cccc3c2n(C)c(=O)n3C2CCC(=O)NC2=O)nn2c(C(=O)N[C@@H]3C[C@@H]3F)cnc12 (stereo partly drawn) [Example K253]
27 | 1 to 10 nM | > 100 nM | > 100 nM | CNc1cc(Nc2cccc(C(=O)NCCCCCCCCc3cccc4c3n(C)c(=O)n4C3CCC(=O)NC3=O)c2)nn2c(C(=O)N[C@@H]3C[C@@H]3F)cnc12 (stereo partly drawn) [Example K254]
28 | < 1 nM | > 100 nM | > 100 nM | CNc1cc(Nc2ccccc2C(=O)NCCCCCCc2ccc3c(c2)n(C)c(=O)n3C2CCC(=O)NC2=O)nn2c(C(=O)N[C@@H]3C[C@@H]3F)cnc12 (stereo partly drawn) [Example K255]
